Consider 27 molecules from patent US8410117B2, “Imidazopyrimidine derivatives” (Hoffmann-La Roche Inc., priority 2010, dated 2013).

Each structure is given as a SMILES string.

For this experiment, the target named is T1, human PDE10A (Homo sapiens, UniProt Q9Y233).
T1 construct: The human PDE10A full length assay; purchased Enzo Life Science, Lausen, Switzerland SE-534
T1 sequence (Q9Y233 1-779 isoform Q9Y233-1): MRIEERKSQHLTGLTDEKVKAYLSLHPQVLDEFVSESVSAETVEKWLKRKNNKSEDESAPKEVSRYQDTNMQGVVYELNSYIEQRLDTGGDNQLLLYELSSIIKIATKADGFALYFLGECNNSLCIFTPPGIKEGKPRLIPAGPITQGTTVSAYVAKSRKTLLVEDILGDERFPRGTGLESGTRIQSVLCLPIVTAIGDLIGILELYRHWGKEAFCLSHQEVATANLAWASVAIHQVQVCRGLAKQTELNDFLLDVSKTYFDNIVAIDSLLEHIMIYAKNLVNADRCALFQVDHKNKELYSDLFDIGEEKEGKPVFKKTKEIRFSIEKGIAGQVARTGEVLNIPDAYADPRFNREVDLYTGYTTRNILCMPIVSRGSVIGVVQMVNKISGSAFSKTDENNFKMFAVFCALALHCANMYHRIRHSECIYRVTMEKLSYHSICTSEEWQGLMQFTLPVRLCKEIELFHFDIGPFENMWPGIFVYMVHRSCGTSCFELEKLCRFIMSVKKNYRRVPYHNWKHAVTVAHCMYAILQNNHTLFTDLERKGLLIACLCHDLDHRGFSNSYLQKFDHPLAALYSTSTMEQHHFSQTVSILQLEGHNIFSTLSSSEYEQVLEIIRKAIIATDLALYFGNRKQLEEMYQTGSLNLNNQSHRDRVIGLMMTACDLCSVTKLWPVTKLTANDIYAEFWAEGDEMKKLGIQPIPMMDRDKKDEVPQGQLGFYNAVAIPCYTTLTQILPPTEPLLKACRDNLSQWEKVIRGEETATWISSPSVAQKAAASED
As to the kind of experiment: human PDE10A full length Scintillation Proximity Assay (SPA). It counts as biochemical. The following applies: 50 nM cGMP and 50 nM [3H]-cGMP, 20 minutes at room temperature; read-out: PDE10A inhibition IC50. As to the method: The following test was carried out in order to determine the activity of the compounds of the present invention. PDE10 activity of the compounds of the present invention was determined using a Scintillation Proximity Assay (SPA)-based method similar to the one previously described (Fawcett, L. et al., Proc Natl Acad Sci USA (2000) 97(7):3702-3707).
The human PDE10A full length assay was performed in 96-well micro titer plates. The reaction mixture of 50 μl contained 20 mM HEPES pH=7.5/10 mM MgCl2/0.05 mg/ml BSA (Sigma cat. #A-7906), 50 nM cGMP (Sigma, cat. #G6129) and 50 nM [^3H]-cGMP (GE Healthcare, cat. #TRK392 S.A. 13.2 Ci/mmol), 3.75 ng/well PDE10A enzyme (Enzo Life Science, Lausen, Switzerland cat #SE-534) with or without a specific test compound. A range of concentrations of the potential inhibitor was used to generate data for calculating the concentration of inhibitor resulting in 50% of the effect (e.g. IC50, the concentration of the competitor inhibiting PDE10A activity by 50%). Non-specific activity was tested without the enzyme. The reaction was initiated by the addition of the substrate solution (cGMP and [^3H]-cGMP) and allowed to progress for 20 minutes at room temperature. The reaction was terminated by adding 25 μl of YSi-SPA scintillation beads (GE Healthcare, cat. #RPNQ0150) in 18 mM zinc sulphate solution (stop reagent). After 1 h under shaking, the plate was centrifuged one minute at 170 g to allow beads to settle. Afterwards, radioactive counts were measured on a Perkin Elmer TopCount Scintillation plate reader.
Take `CC(C)CN(C)C(=O)c1cnn(C)c1C(=O)Nc1ccn2cc(-c3ccccc3)nc2n1` [Example 71, 2-Methyl-2H-pyrazole-3,4-dicarboxylic acid 4-(isobutyl-methyl-amide) 3-[(2-phenyl-imidazo[1,2-a]pyrimidin-7-yl)-amide]]: the half-maximal inhibitory concentration (IC50) came out at 17.6 nM. Next, `Cn1ncc(C(=O)NCC(C)(C)O)c1C(=O)Nc1ccn2cc(-c3ccccc3)nc2n1` [Example 72, 2-Methyl-2H-pyrazole-3,4-dicarboxylic acid 4-[(2-hydroxy-2-methyl-propyl)-amide]3-[(2-phenyl-imidazo[1,2-a]pyrimidin-7-yl)-amide]]: 463 nM.

For `CCN(C)C(=O)c1cnn(CC)c1C(=O)Nc1ccn2cc(-c3ccccc3)nc2n1` [Example 73, 2-Ethyl-2H-pyrazole-3,4-dicarboxylic acid 4-(ethyl-methyl-amide) 3-[(2-phenyl-imidazo[1,2-a]pyrimidin-7-yl)-amide]], the IC50 was 2.8 nM.

Turning to `Cn1ncc(C(=O)N2CCC2)c1C(=O)Nc1ccn2cc(-c3ccc(Cl)s3)nc2n1` [Example 74, 4-(Azetidine-1-carbonyl)-2-methyl-2H-pyrazole-3-carboxylic acid [2-(5-chloro-thiophen-2-yl)-imidazo[1,2-a]pyrimidin-7-yl]-amide], the half-maximal inhibitory concentration (IC50) was determined as 4 nM.

On to `CN(C)C(=O)c1cnn(C)c1C(=O)Nc1ccn2cc(-c3ccccc3)nc2n1` [Example 75, 2-Methyl-2H-pyrazole-3,4-dicarboxylic acid 4-dimethylamide 3-[(2-phenyl-imidazo[1,2-a]pyrimidin-7-yl)-amide]], for which the IC50 stood at 4.9 nM. As for `O=C(Nc1ccn2cc(-c3ccccc3)nc2n1)c1nc(C2CC2)ccc1Nc1cncnc1` [Example 77, 6-Cyclopropyl-3-(pyrimidin-5-ylamino)-pyridine-2-carboxylic acid (2-phenyl-imidazo[1,2-a]pyrimidin-7-yl)-amide], the IC50 stood at 6.3 nM. Next, `Cn1ncc(C(=O)N2CCC2)c1C(=O)Nc1ccn2cc(-c3cccc(OCF)c3)nc2n1` [Example 82, 4-(Azetidine-1-carbonyl)-N-(2-(3-(fluoromethoxy)phenyl)imidazo[1,2-a]pyrimidin-7-yl)-1-methyl-1H-pyrazole-5-carboxamide]: 3.4 nM. Next, `Cn1ncc(C(=O)N2CCC2)c1C(=O)Nc1ccn2cc(-c3cccc(O)c3)nc2n1` [Example 83, 4-(Azetidine-1-carbonyl)-2-methyl-2H-pyrazole-3-carboxylic acid [2-(3-hydroxy-phenyl)-imidazo[1,2-a]pyrimidin-7-yl]-amide]: 3.4 nM; `CN(C)C(=O)c1cnn(C)c1C(=O)Nc1ccn2cc(-c3cccc(O)c3)nc2n1` [Example 84, 2-Methyl-2H-pyrazole-3,4-dicarboxylic acid 4-dimethylamide 3-{[2-(3-hydroxy-phenyl)-imidazo[1,2-a]pyrimidin-7-yl]-amide}]: 3.8 nM. Turning to `COc1cccc(-c2cn3ccc(NC(=O)c4c(C(=O)N(C)C)cnn4C)nc3n2)c1` [Example 85, 2-Methyl-2H-pyrazole-3,4-dicarboxylic acid 4-dimethylamide 3-{[2-(3-methoxy-phenyl)-imidazo[1,2-a]pyrimidin-7-yl]-amide}], the IC50 was found to be 4 nM.

As for `CCN(C)C(=O)c1cnn(C)c1C(=O)Nc1ccn2cc(-c3cccc(OCF)c3)nc2n1` [Example 86, N-4-Ethyl-N5-(2-(3-(fluoromethoxy)phenyl)imidazo[1,2-a]pyrimidin-7-yl)-N4,1-dimethyl-1H-pyrazole-4,5-dicarboxamide], the IC50 stood at 5.2 nM.

As to `CCN(C)C(=O)c1cnn(C)c1C(=O)Nc1ccn2cc(-c3cccc(OC)c3)nc2n1` [Example 87, N-4-ethyl-N5-(2-(3-methoxyphenyl)imidazo[1,2-a]pyrimidin-7-yl)-N-4,1-dimethyl-1H-pyrazole-4,5-dicarboxamide], the IC50 stood at 5.5 nM. Then `CN(C)C(=O)c1cnn(C)c1C(=O)Nc1ccn2cc(-c3cccc(OCF)c3)nc2n1` [Example 88, 2-Methyl-2H-pyrazole-3,4-dicarboxylic acid 4-dimethylamide 3-{[2-(3-fluoromethoxy-phenyl)-imidazo[1,2-a]pyrimidin-7-yl]-amide}], with 5.7 nM; and `CCN(C)C(=O)c1cnn(C)c1C(=O)Nc1ccn2cc(-c3cccc(OCCF)c3)nc2n1` [Example 89, 2-Methyl-2H-pyrazole-3,4-dicarboxylic acid 4-(ethyl-methyl-amide) 3-({2-[3-(2-fluoro-ethoxy)-phenyl]imidazo[1,2-a]pyrimidin-7-yl}-amide)], with 6.1 nM.

In the case of `Cn1ncc(C(=O)N2CC(F)C2)c1C(=O)Nc1ccn2cc(-c3cccc(OCCF)c3)nc2n1` [Example 90, 4-(3-Fluoro-azetidine-1-carbonyl)-2-methyl-2H-pyrazole-3-carboxylic acid {2-[3-(2-fluoro-ethoxy)-phenyl]imidazo[1,2-a]pyrimidin-7-yl}-amide], the IC50 was 6.1 nM. `Cn1ncc(C(=O)N2CCC2)c1C(=O)Nc1ccn2cc(-c3cccc(F)c3)nc2n1` [Example 91, 4-(Azetidine-1-carbonyl)-2-methyl-2H-pyrazole-3-carboxylic acid [2-(3-fluoro-phenyl)-imidazo[1,2-a]pyrimidin-7-yl]-amide]: the concentration for half-maximal inhibition (IC50) was 6.1 nM. For the molecule `Cn1ncc(C(=O)N2CC(F)C2)c1C(=O)Nc1ccn2cc(-c3cccc(F)c3)nc2n1` [Example 92, 4-(3-Fluoro-azetidine-1-carbonyl)-2-methyl-2H-pyrazole-3-carboxylic acid [2-(3-fluoro-phenyl)-imidazo[1,2-a]pyrimidin-7-yl]-amide], the IC50 came out at 6.5 nM. Consider `CC(=O)Oc1cccc(-c2cn3ccc(NC(=O)c4c(C(=O)N(C)C)cnn4C)nc3n2)c1` [Example 93, 3-(7-(4-(dimethylcarbamoyl)-1-methyl-1H-pyrazole-5-carboxamido)imidazo[1,2-a]pyrimidin-2-yl)phenyl acetate], for which the IC50 is 8.3 nM. Regarding `CN(C)C(=O)c1cnn(C)c1C(=O)Nc1ccn2cc(-c3cccc(F)c3)nc2n1` [Example 94, 2-Methyl-2H-pyrazole-3,4-dicarboxylic acid 4-dimethylamide 3-{[2-(3-fluoro-phenyl)-imidazo[1,2-a]pyrimidin-7-yl]amide}], the IC50 stood at 11.2 nM.

On to `CN(CCF)C(=O)c1cnn(C)c1C(=O)Nc1ccn2cc(-c3ccccc3)nc2n1` [Example 95, 2-Methyl-2H-pyrazole-3,4-dicarboxylic acid 4-[(2-fluoro-ethyl)-methyl-amide]3-[(2-phenyl-imidazo[1,2-a]pyrimidin-7-yl)-amide]], for which the IC50 is 12.2 nM. Next, `COCCN(C)C(=O)c1cnn(C)c1C(=O)Nc1ccn2cc(-c3cccc(OCCF)c3)nc2n1` [Example 96, 2-Methyl-2H-pyrazole-3,4-dicarboxylic acid 3-({2-[3-(2-fluoro-ethoxy)-phenyl]-imidazo[1,2-a]pyrimidin-7-yl}-amide) 4-[(2-methoxy-ethyl)-methyl-amide]]: 12.6 nM; `CCN(C)C(=O)c1cnn(C)c1C(=O)Nc1ccn2cc(-c3cccc(F)c3)nc2n1` [Example 97, 2-Methyl-2H-pyrazole-3,4-dicarboxylic acid 4-(ethyl-methyl-amide) 3-{[2-(3-fluoro-phenyl)-imidazo[1,2-a]pyrimidin-7-yl]-amide}]: 14.7 nM; `COc1cccc(-c2cn3ccc(NC(=O)c4c(C(=O)N5CC(F)C5)cnn4C)nc3n2)c1` [Example 98, 4-(3-Fluoro-azetidine-1-carbonyl)-2-methyl-2H-pyrazole-3-carboxylic acid [2-(3-methoxy-phenyl)-imidazo[1,2-a]pyrimidin-7-yl]-amide]: 14.7 nM. Next, `COCCN(C)C(=O)c1cnn(C)c1C(=O)Nc1ccn2cc(-c3cccc(OCF)c3)nc2n1` [Example 99, 2-Methyl-2H-pyrazole-3,4-dicarboxylic acid 3-{[2-(3-fluoromethoxy-phenyl)-imidazo[1,2-a]pyrimidin-7-yl]-amide}-4-[(2-methoxy-ethyl)-methyl-amide]]: 19 nM. With `CCN(C)C(=O)c1cnn(C)c1C(=O)Nc1ccn2cc(-c3cccc(OCC(=O)OC)c3)nc2n1` [Example 100, [3-(7-{[4-(Ethyl-methyl-carbamoyl)-2-methyl-2H-pyrazole-3-carbonyl]-amino}-imidazo[1,2-a]pyrimidin-2-yl)-phenoxy]-acetic acid methyl ester], the IC50 is 21.8 nM.

Take `COCCN(C)C(=O)c1cnn(C)c1C(=O)Nc1ccn2cc(-c3cccc(OC)c3)nc2n1` [Example 101, 2-Methyl-2H-pyrazole-3,4-dicarboxylic acid 4-[(2-methoxy-ethyl)-methyl-amide]3-{[2-(3-methoxy-phenyl)-imidazo[1,2-a]pyrimidin-7-yl]amide}]: the IC50 was 22 nM. For `CN(C)C(=O)c1cnn(C)c1C(=O)Nc1ccn2cc(-c3cccc(OCCF)c3)nc2n1` [Example 102, 2-Methyl-2H-pyrazole-3,4-dicarboxylic acid 4-dimethylamide 3-({2-[3-(2-fluoro-ethoxy)-phenyl]-imidazo[1,2-a]pyrimidin-7-yl}-amide)], the IC50 came out at 27.9 nM.
